Assay results published in patent US8957069B2, “Benzofuran derivatives” (Takeda Pharmaceutical Company Limited, priority 2009, dated 2015).

Test system: rat mixed glial culture
Assay: Activity of promoting neuronal neogenesis in rat mixed glial culture
Format: cell-based
Conditions: compound 1 μM + rhIGF-1 100 ng/ml, three days; anti-class III beta-tubulin, absorbance at 450 nm; control (rhIGF-1 only) = 100%
Method: From a three-day old SD rat, hippocampus and cerebral cortex were removed. By using a kit of dispersion liquid for neuronal cells (MB-X9901, manufactured by SUMITOMO BAKELITE CO., LTD.), cell suspension was prepared and then seeded on a 96-well plate coated with collagen Type I (4860-010, manufactured by Asahi Techno Glass Co., Ltd.) to 10^5 cells/well. Under the condition of 37° C. and 5% CO2, the cells were cultured for four days in a growth medium (D-MEM/F12 with 10% FBS, comprising PS).
After culturing, the medium was exchanged with a medium for differentiation (D-MEM/F12, comprising PS), added with rhIGF-1 (R&D Systems, 291-G1-250, final concentration of 100 ng/ml) and the compound to 1 μM, followed by further culture for three days. […] By using the plate reader (Labsystems Multiskan BICHROMATIC), absorbance at 450 nm was measured.
The absorbance for the case in which no compound is added (i.e., control, rhIGF-1 only) was 100%, and the increase ratio of the absorbance for the compound addition (i.e., compound+rhIGF-1) compared to the control was obtained as % control. Activity of the each compound for promoting neuronal differentiation that is measured according to the above method is summarized in Table 9 and Table 10.

## COc1ccc(N2CCN(c3c(C)c(C)c4c(c3C)CC(C)(CO)O4)CC2)cc1 (single isomer, unassigned; (+)) [Example 144, (+)-{5-[4-(4-methoxyphenyl)piperazin-1-yl]-2,4,6,7-tetramethyl-2,3-dihydro-1-benzofuran-2-yl}methanol]
  Increase Ratio of the Absorbance (% control): >500 % control
